# Where a name gives a salt, the structure may show the parent alone.
# Biological target: human MCH-1 receptor (Homo sapiens (Human), UniProt Q99705)
# Assay: Binding Assay for Human Melanin-Concentrating Hormone (MCH-1) Receptor
# Details: radioligand displacement, membranes from CHO-K1 cells expressing human MCH-1 receptor; Ki from IC50 by Cheng Prusoff equation; read-out: MCH1 Ki
# Experimental: Binding Assay for Human Melanin-Concentrating Hormone (MCH-1) Receptor
# Evaluation of the affinity of compounds for the human MCH-1 receptor was accomplished using 4-(3,4,5-tritritiumbenzyloxy)-1-(1-(2-(pyrrolidin-1-yl)ethyl)-1H-indazol-5-yl)pyridin-2(1H)-one and membranes prepared from stable CHO-K1 cells expressing the human MCH-1 receptor obtained from Euroscreen (Batch 1138). Cell membrane homogenates (8.92 μg protein) were incubated for 60 min at 25° C. with 1.4 nM of the [^3H]-labeled compound in the absence or presence of the test compound in 50 mM Tris-HCl buffer, pH 7.4. Nonspecific binding was determined in the presence of 50 μM 1-(5-(4-cyanophenyl)bicyclo[3.1.0]hexan-2-yl)-3-(4-fluoro-3-(trifluoromethyl)phenyl)-1-(3-(4-methylpiperazin-1-yl)propyl)urea. Following incubation, the samples were filtered rapidly under vacuum through Skatron 11731 filters, pre-soaked in 0.5% polyethylenimine, and washed with ice-cold 50 mM Tris-HCl buffer, pH 7.4, (wash setting 9,9,0) using a Skatron cell harvester. The filters were counted for radioactivity in a liquid scintillation counter (Tri-Carb 2100TR, Packard) using a scintillation cocktail (Ultima Gold MV, Perkin Elmer).
# The results are expressed as a percent inhibition of the control radioligand specific binding. The IC50 value (concentration causing a half-maximal inhibition of control specific binding) and Hill coefficient (nH) were determined by non-linear regression analysis of the competition curve using Hill equation curve fitting. The inhibition constant (Ki) was calculated from the Cheng Prusoff equation: (Ki=IC50/(1+(L/KD)), where L=concentration of radioligand in the assay, and KD=affinity of the radioligand for the receptor.
# human MCH-1 receptor, sequence (Q99705 whole entry): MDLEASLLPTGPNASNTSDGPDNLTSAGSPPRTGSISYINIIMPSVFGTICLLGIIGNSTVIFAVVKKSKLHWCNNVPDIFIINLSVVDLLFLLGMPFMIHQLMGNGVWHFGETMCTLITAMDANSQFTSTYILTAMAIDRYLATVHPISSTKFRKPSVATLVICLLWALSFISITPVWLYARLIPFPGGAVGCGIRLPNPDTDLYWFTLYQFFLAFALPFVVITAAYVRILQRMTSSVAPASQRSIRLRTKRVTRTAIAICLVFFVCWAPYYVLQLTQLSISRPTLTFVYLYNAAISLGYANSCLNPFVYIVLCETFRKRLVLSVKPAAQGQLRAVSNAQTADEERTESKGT
row,SMILES,Ki
1,"Cn1c2c(c3ccc(-n4ccc(-c5ccc(C(F)(F)F)cn5)cc4=O)nc31)CNCCC2 [Example 92, 1-(10-methyl-5,6,7,8,9,10-hexahydropyrido[3′,2′:4,5]pyrrolo[3,2-c]azepin-2-yl)-4-(5-(trifluoromethyl)pyridine-2-yl)pyridin-2(1H)-one hydrochloride]",20 nM
2,"Cn1c2c(c3ccc(N4CCN(CCc5ccc(F)cc5)CC4=O)cc31)CCNCC2 [Example 97, 4-(4-Fluorophenethyl)-1-(6-methyl-1,2,3,4,5,6-hexahydroazepino[4,5-b]indol-8-yl)piperazin-2-one dihydrochloride]",13 nM
3,"CN1CCc2c(n(C)c3cc(N4CCN(CCc5ccc(F)cc5)CC4=O)ccc23)CC1 [Example 98, 1-(3,6-Dimethyl-1,2,3,4,5,6-hexahydroazepino[4,5-b]indol-8-yl)-4-(4-fluorophenethyl)piperazin-2-one dihydrochloride]",13 nM
4,"CCN1CCc2c(n(C)c3cc(N4CCN(CCc5ccc(F)cc5)CC4=O)ccc23)CC1 [Example 99, 1-(3-Ethyl-6-methyl-1,2,3,4,5,6-hexahydroazepino[4,5-b]indol-8-yl)-4-(4-fluorophenethyl)piperazin-2-one dihydrochloride]",17 nM
5,"Cn1c2c(c3ccc(-n4ccc(CCc5ccccc5)nc4=O)cc31)CCNCC2 [Example 101, 1-(6-Methyl-1,2,3,4,5,6-hexahydroazepino[4,5-b]indol-8-yl)-4-phenethylpyrimidin-2(1H)-one hydrochloride]",9.9 nM
6,"Cn1c2c(c3ccc(-n4ccc(OCc5ccc(F)cn5)cc4=O)cc31)C(=O)NCCC2 [Example 104, 8-(4-((5-Fluoropyridin-2-yl)methoxy)-2-oxopyridin-1(2H)-yl)-6-methyl-2,3,4,5-tetrahydroazepino[4,3-b]indol-1(6H)-one]",149 nM

# Further lines, results first:
row,Ki,SMILES
1,26 nM,"Cn1c2c(c3ccc(-n4ccc(OCc5ccc(Cl)cc5Cl)cc4=O)nc31)CNCCC2 [Example 93, 4-(2,4-Dichlorobenzyloxy)-1-(10-methyl-5,6,7,8,9,10-hexahydropyrido[3′,2′:4,5]pyrrolo[3,2-c]azepin-2-yl)pyridin-2(1H)-one hydrochloride]"
2,11 nM,"Cn1c2c(c3ccc(-n4ccc(OCc5ccc(F)cc5F)cc4=O)nc31)CNCCC2 [Example 94, 4-(2,4-Difluorobenzyloxy)-1-(10-methyl-5,6,7,8,9,10-hexahydropyrido[3′,2′:4,5]pyrrolo[3,2-c]azepin-2-yl)pyridin-2(1H)-one hydrochloride]"
3,7.8 nM,"Cn1c2c(c3ccc(-n4ccc(-c5ccc(C(F)(F)F)cc5)cc4=O)nc31)CNCCC2 [Example 95, 1-(10-methyl-5,6,7,8,9,10-hexahydropyrido[3′,2′:4,5]pyrrolo[3,2-c]azepin-2-yl)-4-(4-(trifluoromethyl)phenyl)pyridin-2(1H)-one hydrochloride]"
4,9.2 nM,"Cn1c2c(c3ccc(-n4ccc(OCc5ccc(Cl)cc5F)cc4=O)nc31)CNCCC2 [Example 96, 4-(4-Chloro-2-fluorobenzyloxy)-1-(10-methyl-5,6,7,8,9,10-hexahydropyrido[3′,2′:4,5]pyrrolo[3,2-c]azepin-2-yl)pyridin-2(1H)-one hydrochloride]"
5,10 nM,"Cn1c2c(c3ccc(-n4ccc(OCc5ccc(Cl)cc5)cc4=O)cc31)CCNCC2 [Example 100, 4-(4-Chlorobenzyloxy)-1-(6-methyl-1,2,3,4,5,6-hexahydroazepino[4,5-b]indol-8-yl)pyridin-2(1H)-one hydrochloride]"
6,6 nM,"Cn1c2c(c3ccc(-n4ccc(OCc5ccc(F)cc5)cc4=O)cc31)CNCCC2 [Example 103, 4-(4-Fluorobenzyloxy)-1-(6-methyl-1,2,3,4,5,6-hexahydroazepino[4,3-b]indol-8-yl)pyridin-2(1H)-one hydrochloride]"
7,7.6 nM,"Cn1c2c(c3ccc(-n4ccc(OCc5ccc(Cl)cc5)cc4=O)cc31)CNCCC2 [Example 105, 4-(4-Chlorobenzyloxy)-1-(6-methyl-1,2,3,4,5,6-hexahydroazepino[4,3-b]indol-8-yl)pyridin-2(1H)-one hydrochloride]"

# — US8637501B2, “Azinone-substituted azepino[b]indole and pyrido-pyrrolo-azepine MCH-1 antagonists, methods of making, and use thereof” (Albany Molecular Research, Inc., priority 2009, dated 2014)
